Results as given in article PMC3666196, “Formulation and Particle Size Reduction Improve Bioavailability of Poorly Water-Soluble Compounds with Antimalarial Activity” (Malaria Research and Treatment, 2013).

Columns and labels:
[1] = HPLC check of drug integrity after formulation and HPH; format: physicochemical; details: any of the preparations including microparticles and nanoparticles
Protocol: The rehydrated DQ nanoparticle formulations were evaluated by particle size measurement, determination of drug concentration in the whole suspension as well as in the fine particles less than […], and PK study in drug dosed animals. The particle size was monitored throughout the preparation procedure and before and after animal studies. To ensure that there was no change of the drug integrity in any of the formulation procedure, drug concentrations and chromatography profiles of the drug molecule identity were examined by an Agilent HPLC (Agilent Technologies, Foster City, CA) with an isocratic mobile phase of 20% water and 80% acetonitrile (0.1% formic acid contained in water and acetonitrile, resp.). All drug preparations in aqueous system were diluted in methanol with vigorous vortex and then in acetonitrile for HPLC analysis. This was done to obtain complete extraction of the compound prior to loading the samples to HPLC. To evaluate the amount of DQ in the fine particles, formulation suspensions were prepared in the amount of 10 mg/mL of DQ in water, incubated at 37°C for 2 hours and passed through a […] size filter. […] In order to determine the actual dosage of the drug for animal studies, the concentration of the drug used for dosing animals was determined by HPLC without prior particle size fractionation with filtration.

[2] = set-up: method as in earlier work; details: buffered water pH 4–9; cited from earlier work
[3] = Particle size measurement by laser scattering (Horiba LA-950) and stability of suspensions stored at 4°C; format: physicochemical
Protocol: The particle size was measured using a Horiba LA-950 particle size distribution analyzer (Kyoto, Japan), based on laser scattering. This particular instrument has a measurement period of less than 2 minutes from introduction of sample to data presentation with a sample requirement for testing of 2–5 mg per measurement in a 150 mL flow cell, depending on the sample type. All DQ and WR2996666 preparations were measured at a range of transmittance between 80–90%. Various volumes ranging from 100 μL to 800 μL of samples with about 5–10 mg solid from each vial were tested in this instrument to determine the mean particle size, which was the particle size parameter referred in the results. In order to see the change of particle size of various preparations over time, an accelerated stability study of prepared micro- and nanosuspensions were carried out at a temperature of 4°C for a period of up to 3 weeks. Accurately weighed amounts of samples were placed into glass vials with aluminum-lined caps and stored in a microprocessor-controlled humidity chamber, and the samples were then characterized as a function of exposed time. The stability of particles shown in Tables 1 and 2 was some of the preparations evaluated in this study. Generally, the particles in aqueous suspension dosed in our animals were stable for at least 3 weeks.

[4] = set-up: method as in PMID 11000543; details: formulated into various solid dispersions; cited from earlier work

For CCCCCCCCCCOc1cc2c(O)c(C(=O)OCC)cnc2cc1OCC [DQ, ethyl 6-decyloxy-7-ethoxy-4-hydroxy-3-quinolinecarboxylate, reference compound], the “Chromatography profile (mass quantity, retention time) after formulation process and HPH” value [1] is listed as “no change in chromatography profile”, the Solubility in water [2] is listed as < 0.01 µg/mL and the “Particle size of generated nanoparticles” value ([3]; DQ formulation with poloxamer 407 as surfactant, after HPH) is listed as > 0.5 μm. It also gave a Particle size ([3]; DQ in water or HECT suspension, method HG (homogenizer with generator), stored at 4°C, Week 1) of 99.23 μm, a Particle size ([3]; DQ suspension in HECT, method US (ultra-sonicator), stored at 4°C, Week 1) of 36.62 μm and a Particle size ([3]; DQ suspension, method HG, stored at 4°C, Mean of weeks 1-3) of 102.04 μm. The Particle size ([3]; DQ suspension, method HG, stored at 4°C, Week 2) was 101.33 μm, the Particle size ([3]; DQ suspension, method HG, stored at 4°C, Week 3) was 105.56 μm and the Particle size ([3]; DQ suspension, method US, stored at 4°C, Mean of weeks 1-3) was 36.88 μm. The Particle size ([3]; DQ suspension, method US, stored at 4°C, Week 2) was 36.97 μm, the Particle size ([3]; DQ suspension, method US, stored at 4°C, Week 3) was 36.92 μm and the Particle size ([3]; DQ, method SD (solid dispersion) plus HPH, in water, stored at 4°C, Week 1) was 0.401 μm. It also gave a Particle size ([3]; DQ, method SD plus HPH, stored at 4°C, Mean of weeks 1-3) of 0.392 μm, a Particle size ([3]; DQ, method SD plus HPH, stored at 4°C, Week 2) of 0.384 μm and a Particle size ([3]; DQ, method SD plus HPH, stored at 4°C, Week 3) of 0.377 μm. For the same molecule, the “Particle size of DQ formulations” value ([3]; solid dispersion with polymers and surfactants, sonication followed by HPH at 1500–2500 bars, 120 homogenization cycles) was 0.2–0.4 μm.
For [H]/N=C(/N=C1NC(=O)C(=O)N1C)Nc1ccc(Cl)c(Cl)c1 [WR299666, (E)-1-(3,4-dichlorophenyl)-3-(1-methyl-4,5-dioxoimidazolidin-2-ylidene) guanidine], the Particle size ([3]; WR299666, HPH at 2500 bars in 6 homogenization cycles) was 0.38–0.48 μm, the Particle size ([3]; WR299666 in water or HECT suspension, method Grinder, stored at 4°C, Week 1) was 42.54 μm and the Particle size ([3]; WR299666 suspension, method Grinder, stored at 4°C, Mean of weeks 1-3) was 42.22 μm. The Particle size ([3]; WR299666 suspension, method Grinder, stored at 4°C, Week 2) was 41.07 μm, the Particle size ([3]; WR299666 suspension, method Grinder, stored at 4°C, Week 3) was 43.05 μm and the Particle size ([3]; WR299666 suspension, method HG, stored at 4°C, Mean of weeks 1-3) was 61.88 μm. For the same molecule, the Particle size ([3]; WR299666 suspension, method HG, stored at 4°C, Week 1) was 66.31 μm, the Particle size ([3]; WR299666 suspension, method HG, stored at 4°C, Week 2) was 71.85 μm and the Particle size ([3]; WR299666 suspension, method HG, stored at 4°C, Week 3) was 47.49 μm. For the same molecule, the Particle size ([3]; WR299666 suspension, method HPH, stored at 4°C, Mean of weeks 1-3) was 0.406 μm, the Particle size ([3]; WR299666 suspension, method HPH, stored at 4°C, Week 1) was 0.376 μm and the Particle size ([3]; WR299666 suspension, method HPH, stored at 4°C, Week 2) was 0.397 μm. For the same molecule, the Particle size ([3]; WR299666 suspension, method HPH, stored at 4°C, Week 3) was 0.445 μm, the Particle size ([3]; WR299666 suspension, method US, stored at 4°C, Mean of weeks 1-3) was 1.5 μm and the Particle size ([3]; WR299666 suspension, method US, stored at 4°C, Mean of weeks 1-3, listed as W299666) was 1.50 μm. It also gave a Particle size ([3]; WR299666 suspension, method US, stored at 4°C, Week 1) of 1.52 μm, a Particle size ([3]; WR299666 suspension, method US, stored at 4°C, Week 2) of 1.58 μm and a Particle size ([3]; WR299666 suspension, method US, stored at 4°C, Week 3) of 1.41 μm. The “Average particle size of starting raw material” value ([3]; without treatment) was “above 70 μm”.
For CCCCN(CCCC)CCC(O)c1cc2c(Cl)cc(Cl)cc2c2cc(C(F)(F)F)ccc12 (stereo not drawn) [halofantrine], the “Increase in absolute bioavailability” value [4] is listed as “five- to seven”.
